Source: patent publication US20230337672A1, “METHOD OF C[…] RUST FUNGUS HAVING RESISTANCE TO QoI FUNGICIDE” (SUMITOMO CHEMICAL COMPANY, LIMITED, priority 2020, published 2023)

Tested on: soybean rust fungus (Phakopsora pachyrhizi) having an amino acid substitution of F129L in a mitochondrial cytochrome b protein
Assay: Leaf disc test: preventive spray, then inoculation with soybean rust fungus spores, lesion area investigated
Assay type: in vivo
Settings: Comparative Test Example 1 (Table A)
Description: A true leaf of a soybean (cultivar: Kurosengoku) was cut into a diameter of 1 cm to prepare each leaf disc. To each well of a 24 well microplate was dispensed 1 mL of an agar medium (agar concentration 1.2%), and then one of said leaf disc was placed on each well. To a mixture of Sorpol (registered trademark) 1200KX (0.5 µL), DMSO (4.5 µL), and xylene (5 µL) was added a DMSO solution (20 µL) comprising a test compound (10000 ppm), and the resulting mixture was mixed. The resulting mixture was diluted with ion exchange water to prepare a spray solution comprising a prescribed concentration of the test compound. Said spray solution was sprayed into each leaf disc at a ratio of 10 µL per leaf disc. After 1 day, an aqueous suspension of spores of soybean rust fungus (Phakopsora pachyrhizi) having an amino acid substitution of F129L in a mitochondrial cytochrome b protein (1.0 × 10^5/mL) was inoculated by spraying on each leaf disc. After the inoculation, the microplate was placed into an artificial climate chamber (Lighting: 6 hours, Lights-out: 18 hours, Temperature: 23° C., Humidity: 60%). After 1 day, the leaf discs were air-dried until water droplets on the surfaces of the leaf discs disappeared, and the microplate was placed into the artificial climate chamber again for 12 days. Then, lesion area of soybean rust was investigated. As a result, when the prescribed concentration was 50 ppm, each lesion area of leaf disc treated with any one of the Present compound 2, 6, 8, 25, 29, or 35 as the test compound was 30% or less relative to the lesion area of non-treated leaf disc.
Here, the term of “non-treated” means that a spray solution comprising a test compound was not sprayed into a leaf disc.
Each test is carried out according to the Test Example 1 by using any one of the Present compound S as the test compound with a prescribed concentration of 12.5 ppm. As a result, control effects on soybean rust can be confirmed in the leaf discs treated with test compounds.
Each test is carried out according to the Test Example 1 by using any one of the Present compound S as the test compound with a prescribed concentration of 3.1 ppm. As a result, control effects on soybean rust can be confirmed in the leaf discs treated with test compounds.
Each test was carried out according to the Test Example 1 by using the Present compound 2, 6, 8, 29 or 35, or azoxystrobin, dimoxystrobin, or metominostrobin as the test compound with a prescribed concentration of 50 ppm.

SMILES | Lesion area (%) at the concentration of 50 ppm [%]
CO/C=C(/C(=O)OC)c1ccccc1Oc1cc(Oc2ccccc2C#N)ncn1 [Azoxystrobin, azoxystrobin, reference compound] | 100
CNC(=O)/C(=N/OC)c1ccccc1COc1cc(C)ccc1C [Dimoxystrobin, dimoxystrobin, reference compound] | 100
CNC(=O)/C(=N/OC)c1ccccc1Oc1ccccc1 [Metominostrobin, metominostrobin, reference compound] | 100
CO/C=C(/C(=O)OC)c1cccc2oc(-c3ccccc3)nc12 [Present compound 2] | 10
CO/C=C(/C(=O)OC)c1cccc2sc(-c3ccccc3)nc12 [Present compound 6] | 30
CO/C=C(/C(=O)OC)c1cccc2ccc(-c3ccccc3)cc12 [Present compound 8] | 0
Cn1nc(Cl)n(-c2cccc3oc(Cc4ccccc4)nc23)c1=O [Present compound 29] | 10
Cn1nc(Cl)n(-c2cccc3oc(COc4ccccc4)nc23)c1=O [Present compound 35] | 0
